Laboratory results published in US6911478B2, “Nitric oxide-releasing amidine- and enamine-derived diazeniumdiolates, compositions and uses thereof and method of making same” (The United States of America as represented by the …, priority 1997, dated 2005).

Columns and labels:
Type in all cases: physicochemical
[1] = production of NO and N2O by amidine/nitric oxide adducts, headspace chemiluminescence (NO) and gas chromatography (N2O); conditions: for Yield NO / Yield N2O: headspace; for Yield NO: chemiluminescence; for Yield N2O: gas chromatography
Text: (§1) Nitrous oxide (N2O), being the end product of HNO dimerization and dehydration, provided a measure of HNO production via the equation (Nagasawa et al., J. Med. Chem. 33: 3122-3124 (1990)): [drawing 12]
This example describes the measurement of the production of NO and N2O by amidine/nitric oxide adducts.

[2] = time course of NO production in phosphate buffer pH 7.4 at 37° C., chemiluminescence detector; conditions: phosphate buffer pH 7.4, 37° C.; for initial NO release rate: start of experiment
Protocol: This example describes the measurement of the time course of NO production by amidine and enamine nitric oxide adducts.
The NO release rate was measured periodically by flushing the solution with inert N2 gas and then sweeping newly generated NO into a chemiluminescence detector and integrating the signal produced over the next 4-7 mins. NO release was measured over a period of two weeks.
None of these compounds released nitric oxide via a single pathway which produced a release profile consistent with first order kinetics. Accordingly, the results of each test are summarized here by giving the initial NO release rate, the rate at one intermediate timepoint and the total time of observed NO release for representative examples.

[3] = gas evolution on dissolving in water and acidifying; conditions: dissolved in water and acidified
Text: as §1

## 2-iminopiperidine bis(nitric oxide)adduct [Example 4]
[1]; pH 7.4 buffer
  Yield NO: −0.08 moles per mole cmpd
  Yield N2O: 0.45 moles per mole cmpd

## idazoxan-bis(nitric oxide) adduct [Example 7]
[2]
  time at which NO release reached zero: ≤ 16 days
  initial NO release rate: 5.25×10^−11 moles NO/min./mg.
[2]; after 4 days (gradually increased)
  NO release rate after 4 days: 1.41×10^−10 moles NO/min./mg.

## 2-methyl-2-imidazoline tetrakis(nitric oxide)adduct [Example 2]
[3]
  gas evolution: voluminous gas evolution
[1]; 0.1 N HCl
  Yield NO: 0.45 moles per mole cmpd
  Yield N2O: 0.9 moles per mole cmpd
[1]; pH 7.4, NO by chemiluminescence, N2O by gas chromatography
  composition of evolving gas (NO and N2O): 2 parts NO (determined by chemiluminescence) and 1 part N2O

## tetrahydrozoline bis(nitric oxide)adduct [Example 6]
[2]
  total time of observed NO release (in words): continued for several weeks
  initial NO release rate: 3.64×10^−11 moles NO/min./mg.
[2]; 15 days after the beginning
  NO release rate, last quantitative measurement: 9.00×10^−12 moles NO per min. per mg.
[2]; after 7 days
  NO release rate after 7 days: 2.06×10^−11 moles NO per min. per mg.

## cyclohexanone morpholine enamine bis(nitric oxide) adduct [Example 9]
[2]
  NO release profile, kinetic order: nearly first order kinetics
  time at which NO release reached zero: ≤ 7 days
  initial NO release rate: 4.2×10^−11 moles NO/min./mg.
[2]; after 3 days
  NO release rate after 3 days: 1.8×10^−11 mole NO/min./mg.

## O=NN(O)C1(C2=NCCN2)CCCCC1 [Example 5, 2-cyclohexyl-2-imidazoline bis(nitric oxide)adduct]
[1]; 0.1 N HCl
  Yield N2O: 0.2 moles per mole cmpd

## isobutyraldehyde morpholine enamine bis (nitric oxide) adduct [Example 10]
[2]
  time at which NO release reached zero: 7 days
  initial NO release rate: 3.7×10^−11 moles NO/min./mg.
[2]; remained at about this level for 4 days
  NO release rate after rapid decrease: 7.0×10^−12 mole NO/min./mg.

## acetamidine tetrakis (nitric oxide) adduct [Example 3]
[1]; pH 7.4 buffer
  Yield NO: 0.05 moles per mole cmpd
  Yield N2O: 0.64 moles per mole cmpd
